Blank lines part the entries; values can stand above or below the molecule they belong to. Activity calls are given as the source filed them. The calls are words filed in the database; no cut-off is given here.
Columns and labels:
[1] = Protein binding in plasma (unknown origin) assessed as parent compound remaining; format: ADME, cell-free
[2] = Metabolic stability in rat liver microsomes assessed as intrinsic clearance; format: ADME, Microsome; conditions: read-out: CLH
[3] = Metabolic stability in dog liver microsomes assessed as intrinsic clearance; format: ADME, Canis lupus familiaris, Microsome; conditions: read-out: CLH
[4] = Metabolic stability in human liver microsomes assessed as intrinsic clearance; format: ADME, Microsome; conditions: read-out: CLH
[5] = Metabolic stability in mouse liver microsomes assessed as intrinsic clearance; format: ADME, Microsome; conditions: read-out: CLH
[6] = tested on: Kasumi 1; assay: Growth inhibition on human Kasumi-1 cells measured upto 12 days by Cell Titer-Glo luminescent cell viability assay; format: functional; conditions: Kasumi 1, 288 h
[7] = target: T1, Lysine-specific histone demethylase 1A (Homo sapiens, UniProt O60341)
[8] = target: T1, Lysine-specific histone demethylase 1A; remark: listed apart in the source
Description: Inhibition of LSD1 in human MV4-11 cells assessed as induction of LY96 mRNA expression incubated for 16 hrs by chemiluminescent method

[9] = target: T1, Lysine-specific histone demethylase 1A; remark: listed apart in the source
[10] = target: T1, Lysine-specific histone demethylase 1A; remark: listed apart in the source
[11] = target: T1, Lysine-specific histone demethylase 1A; remark: listed apart in the source
[12] = AUC (0 to infinity) in mouse at 5 mg/kg, po; format: ADME, organism-based; parameters: dose 5 mg/kg, time infinity, route oral; conditions: in vivo
[13] = target: T2, Amine oxidase [flavin-containing] A (Homo sapiens, UniProt P21397); assay: Inhibition of MAO-A (unknown origin)
T2 sequence (P21397 whole entry): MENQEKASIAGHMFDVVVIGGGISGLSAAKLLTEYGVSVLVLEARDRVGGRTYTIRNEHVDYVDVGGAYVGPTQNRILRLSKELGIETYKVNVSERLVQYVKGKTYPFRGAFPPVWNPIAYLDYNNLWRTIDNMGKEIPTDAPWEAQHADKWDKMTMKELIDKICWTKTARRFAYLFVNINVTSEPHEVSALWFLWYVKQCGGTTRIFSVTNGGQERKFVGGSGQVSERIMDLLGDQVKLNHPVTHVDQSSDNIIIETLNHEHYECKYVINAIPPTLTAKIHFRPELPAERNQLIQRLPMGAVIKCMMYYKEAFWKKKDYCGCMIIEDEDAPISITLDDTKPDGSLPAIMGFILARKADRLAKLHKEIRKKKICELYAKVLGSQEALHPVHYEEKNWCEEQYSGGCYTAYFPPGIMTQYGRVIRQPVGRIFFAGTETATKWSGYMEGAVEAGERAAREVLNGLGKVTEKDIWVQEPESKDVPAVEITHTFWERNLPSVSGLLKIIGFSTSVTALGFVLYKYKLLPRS

[14] = tested on: OCI-AML-3; assay: Growth inhibition on human OCI-AML3 cells measured upto 12 days by Cell Titer-Glo luminescent cell viability assay; format: functional; conditions: OCI-AML-3, 288 h
[15] = Cmax in mouse at 5 mg/kg, po; format: ADME, organism-based; parameters: dose 5 mg/kg, route oral; conditions: in vivo
[16] = tested on: OCI-AML-5; assay: Growth inhibition on human OCI-AML5 cells measured upto 12 days by Cell Titer-Glo luminescent cell viability assay; format: functional; conditions: OCI-AML-5, 288 h
[17] = Clearance in mouse at 1 mg/kg, iv; format: ADME, organism-based; conditions: in vivo
[18] = tested on: Mus musculus; assay: Induction of LY96 mRNA in CB17-scid mouse xenografted with human Kasumi-1 cells at 0.5 and 1.5 mg/kg, po administered for 14 days; format: functional, organism-based
[19] = tested on: Kasumi 1; assay: Antitumor activity against human Kasumi-1 cells xenografted in oral dosed CB17 SCID mouse assessed as tumor growth inhibition administered for 14 days; format: functional, organism-based
[20] = tested on: MOLM-13; assay: Growth inhibition on human MOLM13 cells measured upto 12 days by Cell Titer-Glo luminescent cell viability assay; format: functional; conditions: MOLM-13, 288 h
[21] = Oral bioavailability in mouse at 5 mg/kg; format: ADME, organism-based; conditions: in vivo
[22] = tested on: NOMO-1; assay: Growth inhibition on human NOMO1 cells measured upto 12 days by Cell Titer-Glo luminescent cell viability assay; format: functional; conditions: NOMO-1, 288 h
[23] = Half life in mouse at 1 mg/kg, iv; format: ADME, organism-based; conditions: in vivo
[24] = tested on: MV4-11; assay: Growth inhibition on human MV4-11 cells measured upto 12 days by Cell Titer-Glo luminescent cell viability assay; format: functional; conditions: MV4-11, 288 h
[25] = target: T3, Amine oxidase [flavin-containing] B (Homo sapiens, UniProt P27338); assay: Inhibition of MAO-B (unknown origin)
T3 sequence (P27338 whole entry): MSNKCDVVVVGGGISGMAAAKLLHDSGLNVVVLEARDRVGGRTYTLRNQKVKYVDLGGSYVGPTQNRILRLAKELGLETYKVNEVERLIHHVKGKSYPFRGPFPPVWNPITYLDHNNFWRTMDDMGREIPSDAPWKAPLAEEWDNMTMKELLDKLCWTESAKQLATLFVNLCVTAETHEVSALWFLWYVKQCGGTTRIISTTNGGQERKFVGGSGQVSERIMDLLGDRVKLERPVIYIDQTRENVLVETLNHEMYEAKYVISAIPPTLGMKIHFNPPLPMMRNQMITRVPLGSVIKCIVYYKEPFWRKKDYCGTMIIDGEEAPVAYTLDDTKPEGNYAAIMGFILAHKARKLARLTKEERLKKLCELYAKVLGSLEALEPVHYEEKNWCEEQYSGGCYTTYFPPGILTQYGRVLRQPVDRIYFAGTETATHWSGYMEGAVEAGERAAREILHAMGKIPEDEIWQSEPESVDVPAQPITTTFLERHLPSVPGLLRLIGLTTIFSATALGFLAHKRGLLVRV

[26] = tested on: SET-2; assay: Growth inhibition on human SET2 cells measured upto 12 days by Cell Titer-Glo luminescent cell viability assay; format: functional; conditions: SET-2, 288 h
[27] = tested on: SKM-1; assay: Growth inhibition on human SKM1 cells measured upto 12 days by Cell Titer-Glo luminescent cell viability assay; format: functional; conditions: SKM-1, 288 h
[28] = Volume of distribution at steady state in mouse at 1 mg/kg, iv; format: ADME, organism-based; conditions: in vivo, read-out: Vdss
[29] = Toxicity in CB17 SCID mouse xenografted with human Kasumi-1 cells assessed body weight loss at 1.5 mg/kg, po administered for 14 days; format: organism-based; conditions: in vivo, 336 h
[30] = Toxicity in CB17 SCID mouse xenografted with human Kasumi-1 cells assessed body weight loss at 0.5 mg/kg, po administered for 14 days; format: organism-based; conditions: in vivo, 336 h

- fraction unbound [1]: ≤ 0.05
SMILES: C(=C\C1CC1NCC1CCNCC1)/c1ccccc1 (stereo not given)

- microsomal CLint [2]: 43 µL/min/mg
- microsomal CLint [3]: 283 µL/min/mg
- microsomal CLint [4]: 49 µL/min/mg
- microsomal CLint [5]: 85 µL/min/mg
SMILES: CC/C(=C\c1ccccc1)[C@@H]1C[C@H]1NC1CC2(C1)CN(C1COC1)C2
- GI50 [6]: 1 nM

- Kinact [7]: 0.39 min⁻¹
- EC50 [8]: 54 nM
- Ki [9]: 9.6 nM
- Ratio [10]: 680 M⁻¹ s⁻¹
- IC50 [11]: 212 nM
SMILES: O=C(O)c1ccc(CN2CCC(CN[C@@H]3C[C@H]3c3ccccc3)CC2)cc1 [GSK2879552]
- GI50 [6]: 20 nM

- EC50 [8]: 6 nM
- IC50 [11]: < 1.8 nM
SMILES: CC/C(=C\c1ccccc1)[C@@H]1C[C@H]1N[C@H]1CC[C@H](NCCO)CC1 (racemic)

- microsomal CLint [2]: 48 µL/min/mg
- microsomal CLint [3]: 87 µL/min/mg
- microsomal CLint [4]: 18 µL/min/mg
- microsomal CLint [5]: 76 µL/min/mg
SMILES: CC/C(=C\c1ccccc1)[C@@H]1C[C@H]1NC1CC2(C1)CN(C(C)=O)C2
- GI50 [6]: 41 nM

Second part, the molecule before the results:

SMILES: CC/C(=C\c1ccccc1)[C@@H]1C[C@H]1NC1CC2(C1)CN(CC(F)F)C2
- microsomal CLint [2]: 175 µL/min/mg
- EC50 [8]: 7 nM
- microsomal CLint [3]: 480 µL/min/mg
- microsomal CLint [4]: 133 µL/min/mg
- microsomal CLint [5]: 883 µL/min/mg
- GI50 [6]: 110 nM
- IC50 [11]: < 3 nM

SMILES: CC/C(=C\c1ccccc1)[C@@H]1C[C@H]1NC1CC2(C1)CN(CCO)C2
- AUC(0-inf) [12]: 189 ng·h/mL
- IC50 [13]: > 80000 nM
- microsomal CLint [2]: 15 µL/min/mg
- GI50 [14]: 271 nM
- Cmax [15]: 40 ng/mL
- GI50 [16]: 332 nM
- clearance [17]: 162 mL/min/kg
- Kinact [7]: 0.38 min⁻¹
- Activity [18]: Active
- EC50 [8]: 2 nM
- TGI [19]: Dose-dependent effect
- Ki [9]: 6.1 nM
- GI50 [20]: 893 nM
- Ratio [10]: 1e+06 M⁻¹ s⁻¹
- bioavailability [21]: 59%
- GI50 [22]: 78 nM
- microsomal CLint [3]: 41 µL/min/mg
- half-life [23]: 25.3 h
- microsomal CLint [4]: 9 µL/min/mg
- microsomal CLint [5]: 25 µL/min/mg
- GI50 [24]: 5 nM
- IC50 [25]: > 80000 nM
- GI50 [6]: 1 nM
- GI50 [26]: 37 nM
- IC50 [11]: < 3 nM
- GI50 [27]: 14 nM
- Vd [28]: 118 L/kg
- Activity [29]: <= 5%
- Activity [30]: Non-Toxic

SMILES: CC/C(=C\c1ccccc1)[C@@H]1C[C@H]1NC1CC2(CNC2)C1
- microsomal CLint [2]: 19 µL/min/mg
- microsomal CLint [3]: 14 µL/min/mg
- microsomal CLint [4]: 11 µL/min/mg
- microsomal CLint [5]: 17 µL/min/mg
- GI50 [6]: 11 nM

SMILES: CC/C(=C\c1ccccc1)[C@@H]1C[C@H]1NC1CC2(CCN(CCO)CC2)C1
- microsomal CLint [2]: 19 µL/min/mg
- EC50 [8]: 5 nM
- microsomal CLint [3]: 39 µL/min/mg
- microsomal CLint [4]: 10 µL/min/mg
- microsomal CLint [5]: 28 µL/min/mg
- GI50 [6]: 1 nM
- IC50 [11]: < 3 nM

SMILES: CC/C(=C\c1ccccc1)[C@@H]1C[C@H]1NC1CCN(CCO)CC1
- microsomal CLint [2]: 27 µL/min/mg
- EC50 [8]: 4 nM
- microsomal CLint [3]: 106 µL/min/mg
- microsomal CLint [4]: 41 µL/min/mg
- microsomal CLint [5]: 46 µL/min/mg
- GI50 [6]: 3 nM
- IC50 [11]: < 2.6 nM

SMILES: C/C(=C\c1ccccc1)[C@@H]1C[C@H]1NC1CCNCC1 (racemic)
- IC50 [11]: < 2.8 nM

SMILES: CC/C(=C\c1ccccc1)[C@@H]1C[C@H]1NC1CC2(C1)CN(S(C)(=O)=O)C2
- microsomal CLint [2]: 80 µL/min/mg
- microsomal CLint [3]: 105 µL/min/mg
- microsomal CLint [4]: 67 µL/min/mg
- microsomal CLint [5]: 812 µL/min/mg
- GI50 [6]: 17 nM
